Results on five molecules are retold here after DBAASP.

Some test systems named below: Pseudomonas syringae; Klebsiella pneumoniae; Xanthomonas vesicatoria; Escherichia coli; Staphylococcus aureus; Candida albicans SC5314; Pseudomonas aeruginosa; Escherichia coli BL21; Acinetobacter baumannii; Enterobacter cloacae; Staphylococcus aureus MR.
Experiment in all cases: ≥ marks a high value that may be exact or a test limit, other limits are often not marked, values filed in µg/mL are converted to µM
In assay [1] the test system is Enterococcus faecalis NCTC 12697.
The test system of assay [2] is Candida albicans NCPE 1467.
Assay [3] relates to Staphylococcus aureus NCTC 10788.
In assay [4] the test system is Chromobacterium violaceum ATCC 12472.
Assay [5] has as its system Staphylococcus aureus NCTC 12493.
For assay [6], the system named is Pseudomonas aeruginosa ATCC 27853.
Assay [7] has as its system Staphylococcus aureus ATCC 43300.
Assay [8] concerns Escherichia coli NCTC 10418.
Assay [9] deals with Acinetobacter baumannii ATCC BAA-1605.
Assay [10] deals with Klebsiella pneumoniae ATCC 700603.
Assay [11] concerns Staphylococcus aureus ATCC 33591.
Assay [12] has as its system Enterococcus faecium ATCC 700221.
The subject of assay [13] is Escherichia coli ATCC 25922.
The test system of assay [14] is Cryptococcus neoformans var. grubii H99.
In assay [15] the test system is Xanthomonas oryzae pv. oryzae.
Assay [16] deals with Streptococcus pyogenes AP1.
The subject of assay [17] is Xanthomonas campestris pv. campestris.
The test system of assay [18] is Streptococcus pneumoniae TIGR4.
The test system of assay [19] is Staphylococcus aureus ATCC 29213.
In assay [20] the test system is Staphylococcus aureus ATCC 25923.
The subject of assay [21] is Klebsiella pneumoniae ATCC 13883.
The subject of assay [22] is Pseudomonas aeruginosa PAO1.
For assay [23], the system named is Pseudomonas aeruginosa PA14.
The subject of assay [24] is Escherichia coli KpC+001812446.
The test system of assay [25] is Staphylococcus aureus ATCC 12600.
The test system of assay [26] is Klebsiella pneumoniae KpC+001825971.
Assay [27] deals with Micrococcus luteus ATCC 49732.
For assay [28], the system named is Aeromonas hydrophila ATCC 35654.

≈ marks a conversion by molar mass, not a printed value. Where “and” joins values, the source holds several entries; their conditions need not be identical. Equal entries are not always repeated.

For the molecule `CC[C@H](C)[C@H](NC(=O)[C@H](C)NC(=O)[C@H](C)NC(=O)[C@@H]1CCCN1C(=O)[C@@H](NC(=O)[C@H](CC(C)C)NC(=O)[C@H](CCCCN)NC(=O)[C@H](CO)NC(=O)[C@H](C)NC(=O)[C@@H](NC(=O)[C@H](CCCCN)NC(=O)[C@H](Cc1ccccc1)NC(=O)[C@H](CC(C)C)NC(=O)[C@H](C)NC(=O)CNC(=O)[C@H](CC(C)C)NC(=O)[C@@H](N)Cc1ccccc1)C(C)C)C(C)C)C(=O)N[C@H]1CSSC[C@@H](C(=O)O)NC(=O)[C@H](CCCCN)NC(=O)[C@H](CCCCN)NC(=O)[C@H](CO)NC(=O)[C@H]([C@@H](C)CC)NC(=O)[C@H](CO)NC1=O` [FLGALFKVASKLVPAAICSISKKC], the minimum inhibitory concentration (MIC) (as a rule, the least concentration at which growth counts as inhibited) in assay [1] was 12.8 µM (≈ 31.9 µg/mL); in [2], 4 µM (≈ 9.97 µg/mL); in assay [3] it was 2 µM (≈ 4.99 µg/mL); in assay [4] it was not below 205 µM; in [5] it was 4 µM (≈ 9.97 µg/mL); in assay [6], 32 µM (≈ 79.8 µg/mL). The MIC in assay [7] came to 51.3 µM (≈ 128 µg/mL); in [8] it was 8 µM (≈ 19.9 µg/mL).

As to `CC[C@H](C)[C@H](NC(=O)[C@H](CCCCN)NC(=O)[C@H](CCCN=C(N)N)NC(=O)[C@H](Cc1ccccc1)NC(=O)[C@H](CC(C)C)NC(=O)[C@H](CCCN=C(N)N)NC(=O)[C@@H](N)CCCCN)C(=O)N[C@@H](CC(C)C)C(=O)N[C@@H](CCCN=C(N)N)C(=O)N[C@@H](Cc1ccc(O)cc1)C(=O)N[C@@H](CC(C)C)C(N)=O` [KRLFRKILRYL], the MIC in [9] is 11.6 µM (≈ 17.5 µg/mL); in assay [10], 23.2 µM (≈ 35 µg/mL); in [11] it was not below 46.8 µM; in assay [12], 23.2 µM (≈ 35 µg/mL); in assay [6], 46.8 µM (≈ 70.5 µg/mL); in assay [13], 46.8 µM (≈ 70.5 µg/mL).

With `CC[C@H](C)[C@H](NC(=O)[C@H](CCC(=O)O)NC(=O)[C@H](Cc1ccc(O)cc1)NC(=O)[C@@H](N)CCCCN)C(=O)N[C@H](C(=O)N[C@H](C(=O)N[C@H](C(=O)N[C@@H](Cc1cnc[nH]1)C(=O)N[C@@H](CC(N)=O)C(=O)N[C@@H](CC(C)C)C(=O)N[C@@H](Cc1ccccc1)C(=O)N[C@@H](CCCN=C(N)N)C(=O)N[C@@H](CCCCN)C(=O)N[C@@H](CC(C)C)C(=O)N[C@H](C(=O)N[C@@H](Cc1cnc[nH]1)C(=O)N[C@@H](CCCN=C(N)N)C(=O)N[C@@H](CC(C)C)C(=O)N[C@@H](Cc1ccccc1)C(=O)N[C@@H](CCCN=C(N)N)C(=O)N[C@@H](CCCN=C(N)N)C(=O)N[C@@H](CC(N)=O)C(=O)N[C@@H](Cc1ccccc1)C(=O)NCC(=O)N[C@@H](Cc1ccc(O)cc1)C(=O)N[C@H](C(=O)N[C@@H](CC(C)C)C(=O)N[C@@H](CCCN=C(N)N)C(=O)O)[C@@H](C)O)[C@@H](C)O)[C@@H](C)CC)[C@@H](C)O)[C@@H](C)O` [KYEITTIHNLFRKLTHRLFRRNFGYTLR], the MIC with Pseudomonas syringae was 5 µM (≈ 18 µg/mL); in assay [14], 25 µM and ≥ 50 µM; in assay [15] it was 5 µM (≈ 18 µg/mL); in [16], 10 µM (≈ 36 µg/mL); in the assay with Klebsiella pneumoniae it was 10 µM and 25 µM; in assay [17], 5 µM (≈ 18 µg/mL). In addition, the minimal inhibitory concentration (MIC) against Xanthomonas vesicatoria was 1 µM (≈ 3.6 µg/mL); in the assay with Escherichia coli it was 3.54 µM (≈ 12.7 µg/mL); in the assay with Staphylococcus aureus, 5 µM (≈ 18 µg/mL); against Candida albicans SC5314 it was 25 µM and ≥ 50 µM; in assay [18], 5 µM (≈ 18 µg/mL); in the assay on Pseudomonas aeruginosa, 14.1 µM (≈ 50.8 µg/mL). Further, the MIC stood at 10 µM (≈ 36 µg/mL) in [6], 10 µM (≈ 36 µg/mL) in [13] and 5 µM (≈ 18 µg/mL) in assay [19].

As to `CC[C@H](C)[C@H](NC(=O)[C@H](CCCCN)NC(=O)[C@H](C)NC(=O)[C@H](C)NC(=O)[C@H](CC(C)C)NC(=O)[C@H](CCCN=C(N)N)NC(=O)[C@H](CC(C)C)NC(=O)[C@H](C)NC(=O)[C@H](CC(C)C)NC(=O)[C@H](CCCCN)NC(=O)[C@H](CC(C)C)NC(=O)[C@H](CCCCN)NC(=O)[C@H](CCCCN)NC(=O)[C@H](CCSC)NC(=O)[C@@H]1CCCN1)C(=O)N[C@@H](C)C(=O)N1CCC[C@H]1C(=O)N[C@H](C(=O)N[C@@H](Cc1c[nH]c2ccccc12)C(=O)O)C(C)C` [PMKKLKLALRLAAKIAPVW], the minimal inhibitory concentration (MIC) in the assay with Escherichia coli BL21 worked out at 2 µM (≈ 4.3 µg/mL); in [20] it was 8 µM (≈ 17.2 µg/mL); in assay [21], 8 µM (≈ 17.2 µg/mL); in [22] it was 16 µM (≈ 34.4 µg/mL); in assay [23], 8 µM (≈ 17.2 µg/mL); with Acinetobacter baumannii, 4 µM (≈ 8.59 µg/mL). Further, the minimal inhibitory concentration (MIC) in [24] is 2 µM (≈ 4.3 µg/mL); in the assay with Enterobacter cloacae, not below 32 µM; in assay [25], 16 µM (≈ 34.4 µg/mL); in the assay with Staphylococcus aureus MR, not below 32 µM; in [13], 8 µM (≈ 17.2 µg/mL); in [26], not below 32 µM.

For the molecule `CC(C)C[C@H](NC(=O)[C@H](Cc1cnc[nH]1)NC(=O)[C@H](C)NC(=O)[C@H](CCCCN)NC(=O)[C@H](CCCCN)NC(=O)[C@H](Cc1ccccc1)NC(=O)[C@H](CO)NC(=O)[C@H](CCCCN)NC(=O)[C@H](CC(=O)O)NC(=O)[C@H](Cc1cnc[nH]1)NC(=O)[C@H](Cc1c[nH]c2ccccc12)NC(=O)[C@H](CCCN=C(N)N)NC(=O)[C@H](CCC(N)=O)NC(=O)[C@H](CCC(N)=O)NC(=O)[C@H](CCCN=C(N)N)NC(=O)[C@@H](N)CCCN=C(N)N)C(=O)NCC(=O)N[C@H](C(=O)N[C@@H](C)C(=O)N[C@H](C(=O)N[C@@H](CCCCN)C(=O)N[C@@H](C)C(N)=O)C(C)C)[C@@H](C)O` [RRQQRWHDKSFKKAHLGTAVKA], the MIC in assay [20] is more than 20 µM; in assay [27], 20 µM (≈ 53 µg/mL); in assay [28] it was 20 µM (≈ 53 µg/mL); in [13], more than 20 µM.
